Source: patent publication US20240319173A1, “REAGENTS AND METHODS FOR PROMOTING ARTERIAL ENDOTHELIUM DIFFERENTIATION AND NITRIC OXIDE PRODUCTION” (Wisconsin Alumni Research Foundation, priority 2023, published 2024)

Assays:
[1] = tested on: NOS3-NLuc-2A-tdTomato hPSCs; assay: Arterial endothelial cell (AEC) differentiation, flow cytometry for CD144+ DLL4+ cells; format: cell-based, human; conditions: for AEC differentiation from PSCs: general statement, timing not given
Text: FIG. 3A is a bar graph showing arterial endothelial cell differentiation in response to treatment on days 2 through 6 of different concentrations of compounds identified in compound screening assays. Differentiated arterial endothelial cells were identified by flow cytometry for CD144+ DLL4+ cells after 6 days of treatment.
FIG. 3B is a bar graph showing arterial endothelial cell differentiation in response to three specific compounds at day 3-6 of differentiation.
NOS3-NLuc-Tom human pluripotent stem cells (hPSCs), prepared as set forth above, were cultured in E8BAC medium for two days (day 0-2) to induce mesoderm formation. On days 2-5 cells received Five Factor medium daily, and AEC collected on day 6. More than 90% of the resulting cells were CD144^+CXCR4^+DLL4^+, consistent with differentiation to AEC cells.
C21-C33 compounds were further tested to confirm their effects. […] Thus, the effects of C21, C22, and C24-C31 on AEC differentiation from NOS3-NLuc-2A-tdTomato hPSCs were measured.

AECs = assay: Nitric oxide (NO) production assay with DAF-FM; format: cell-based, human; conditions: AECs treated for 2 days, 1 μM DAF-FM, flow cytometry (FIG. 4A, 4B)
Method: FIG. 4A is a graph of nitric oxide (NO) production in response to contacting NOS3-NLuc-2A-tdTomato construct-containing reporter cells derived from arterial endothelial with compounds identified in the screen for 2 days.
These AECs were seeded on a vitronectin-coated 24-well plate (1×10^5 cells/well) with FVIR medium. Candidate compounds were added to the medium. Two days later, the medium was changed to fresh FVIR media containing 1 μM DAF-FM (4-Amino-5-Methylamino-2′,7′-Difluorofluorescein Diacetate). Cells were cultured for 30 mins and harvested for flow cytometric analysis. DAF-FM is nonfluorescent until it reacts with NO to form a fluorescent benzotriazole. Results of these experiments are shown in FIG. 3A, FIG. 3B, and FIG. 4.

[2] = compound added from day 2 to day 6 of differentiation, dose-dependent (FIG. 3A)
[3] = compound added from day 3 to day 6 of differentiation (FIG. 3B)

| SMILES | percentage of AEC on day 6 compared to control treatment [1, 2] | percentage of AEC on day 6 compared to control treatment [1, 3] | AEC differentiation from PSCs [1] | NO production (DAF-FM fluorescence) compared to control treatment (AECs) |
| --- | --- | --- | --- | --- |
| O=S(=O)(N1CCCCCC1)N1CCN(c2ccnc3cc(Cl)ccc23)CC1 [C21] | increase | increased | increase | increase |
| COc1ccc(C2CCCN2Cc2cc(C(C)(C)C)cc(O)c2O)cc1 (centres unmarked) [C22] | increase | – | increase | increase |
| CCc1ccc(S(=O)(=O)N2CCCc3cc(C)ccc32)cc1 [C23] | – | increased | increase | increase |
| Cc1ccc(CN2C(=O)NC(C)(c3ccc(Cl)cc3Cl)C2=O)cc1 (centres unmarked) [C24] | – | – | increase | increase |
| CNS(=O)(=O)c1ccc(NC2CCc3ccccc32)c([N+](=O)[O-])c1 (centres unmarked) [C25] | – | – | increase | – |
| CC1=CC(=O)C2=C(C)CC[C@@H]3[C@H](OC(=O)[C@H]3C)[C@@H]12 [C28, Leucomisine] | – | – | increase | – |
| CNC(=O)c1c(F)cccc1Nc1nc(Nc2cc3c(cc2OC)CCN3C(=O)CN(C)C)nc2[nH]ccc12 [C31, GSK1838705A, reference compound] | – | – | – | increase |
| CCCCCCCCCCCCCCCCCCOCC(COP(=O)([O-])OCC[N+](C)(C)C)OC (centres unmarked) [C33, 1-Octadecyl-2-methylglycero-3 PC] | – | increased | increase | – |
